From patent US20150140015A1, “METHODS AND PHARMACEUTICAL COMPOSITIONS FOR THE TREATMENT OF PANCREATIC CANCER” (INSERM (Institut National de la Sante et de la Recherche …, priority 2013, published 2015)

Tests used:
parental HPAF-II cells [1] = experiment: Activated caspase-3 immunostaining in parental HPAF-II cells; type: cell-based, human; details: 1 μM orexin-A, 48 hr
Procedure: (§1) FIGS. 5A and B. Effect of orexin-A on apoptosis in OX1R expressing recombinant OX1R/HPAF-II cells. A, Parental HPAF-II and recombinant OX1R/HPAF-II cells were challenged with (black bars) or without (white bars) 1 μM orexin-A for 48 hr in the absence or presence of the SHP-2 protein tyrosine phosphatase inhibitor, NSC-87877 (50 μM). Apoptosis was measured by determination of annexin V-PE binding. Results are expressed as the percentage of apoptotic cells, and are the means±SE of three separate experiments. ***p<0.001; ns, non-significant; B, paraformaldehyde-fixed HPAF-II cells and recombinant OX1R/HPAF-II cells were challenged with or without (Basal) 1 μM orexin-A for 48 hr. […]
(§2) After dewaxing, rehydrating tumor paraffin sections, and antigen retrieval by pretreatment with high temperature at pH 9, immunohistochemical procedures were carried out using an automated immunohistochemical stainer according to the manufacturer's guidelines (Bond-Max slide stainer, Menarini, Leica Microsystems). […] OX1R immunostaining was evaluated by two investigators (TV and AC) by calculating a score (0-300) obtained by multiplying the intensity (negative, 0; weak, 1; moderate, 2; and strong, 3) by the percentage of stained cells. The pattern of expression (cytoplasmic, membranous, and nuclear) was also recorded, and a mean score was calculated for each tumor. […]

[2] = system: HPAF-II cells expressing recombinant OX1R; experiment: Quantification of apoptotic cells by annexin V-PE labeling in recombinant OX1R/HPAF-II cells; type: cell-based, human; details: 1 μM orexin-A, 48 hr; recombinant HPAF-II expressing OX1R
Procedure: as §1, with “hr. Indirect immunostaining of activated caspase-3 in parental HPAF-II cells (left panels) and recombinant OX1R/HPAF-II cells (right panels) in the presence (bottom panels) or tabsence (top panels) of orexin-A is illustrated in B.” for “hr.”
AsPC-1, SW 1990, HPAF-II and HPAF-II/hOX1R cells (seeded at 5×10^4 cells/well) were grown in 24-well plates for 24 hr under the culture conditions described above. […] Results are expressed as the percentage of apoptotic phycoerythrin-labelled Annexin V (Annexin V-PE) positive cells and are the means of 3 independent analyses.

[3] = system: AsPC-1 cells xenografted in nude mice; experiment: Tumorigenicity assay: AsPC-1 cells xenografted in nude mice; type: in vivo
AsPC-1 cells = experiment: Quantification of apoptotic cells by annexin V-PE labeling in AsPC-1 cells; type: cell-based, human; details: 1 μM orexin-A, 48 hr
Procedure: FIG. 4A-C. Effect of orexin-A on apoptosis in AsPC-1 cells. A, SHP-2 protein tyrosine phosphatase inhibitor, NSC-87877, blocks orexin-induced apoptosis. AsPC-1 cells were challenged with (black bars) or without (white bars) 1 μM orexin-A for 48 hr in the absence or presence of NSC-87877 (50 μM). Apoptosis was measured by determination of annexin V-PE binding, and results are expressed as the percentage of apoptotic cells; B and C: Indirect immunostaining of activated caspase-3 in AsPC-1 cells in the presence or absence of orexin-A. Paraformaldehyde-fixed AsPC-1 cells were challenged with (orexin-A) or without (basal) 1 μM orexin-A for 48 hr. Activated caspase-3 immunostaining is shown in B and scored in C. Results are means±SE of three separate experiments. ***p<0.001; ns, non-significant.
(§3) AsPC-1, SW 1990, HPAF-II and HPAF-II/hOX1R cells (seeded at 5×10^4 cells/well) were grown in 24-well plates for 24 hr under the culture conditions described above. The culture medium was then replaced every 24 hr with fresh medium with or without orexin-A (GL Biochemicals) at a concentration of 1 μM in the presence or absence of the SHP-2 inhibitor, NSC-87877 (50 μM) (Calbiochem, VWR International SAS, France). At the end of the treatment (48 hr), apoptotic cells were determined using the Guava Nexin™ kit (Guava Technologies, Hayward, Calif., USA), which discriminates between apoptotic and non-apoptotic cells (Rouet-Benzineb P, Rouyer-Fessard C, Jarry A, et al. Orexins Acting at Native OX1 Receptor in Colon Cancer and Neuroblastoma Cells or at Recombinant OX1 Receptor Suppress Cell Growth by Inducing Apoptosis. J Biol Chem 2004; 279:45875-86), analyzed with the Guava Personal Cell Analysis (PCA) system (Merck-Millipore, Guyancourt, France), and counted (2,000 events) (Voisin et al, 2008, as above). Results are expressed as the percentage of apoptotic phycoerythrin-labelled Annexin V (Annexin V-PE) positive cells and are the means of 3 independent analyses.

[4] = system: recombinant OX1R/HPAF-II cells; experiment: Activated caspase-3 immunostaining in recombinant OX1R/HPAF-II cells; type: cell-based, human; details: 1 μM orexin-A, 48 hr
Procedure: as §1, §2

parental HPAF-II cells [5] = experiment: Quantification of apoptotic cells by annexin V-PE labeling in parental HPAF-II cells; type: cell-based, human; details: 1 μM orexin-A
Procedure: FIGS. 5A and B. Effect of orexin-A on apoptosis in OX1R expressing recombinant OX1R/HPAF-II cells. A, Parental HPAF-II and recombinant OX1R/HPAF-II cells were challenged with (black bars) or without (white bars) 1 μM orexin-A for 48 hr in the absence or presence of the SHP-2 protein tyrosine phosphatase inhibitor, NSC-87877 (50 μM). Apoptosis was measured by determination of annexin V-PE binding. Results are expressed as the percentage of apoptotic cells, and are the means±SE of three separate experiments. ***p<0.001; ns, non-significant; B, paraformaldehyde-fixed HPAF-II cells and recombinant OX1R/HPAF-II cells were challenged with or without (Basal) 1 μM orexin-A for 48 hr. Indirect immunostaining of activated caspase-3 in parental HPAF-II cells (left panels) and recombinant OX1R/HPAF-II cells (right panels) in the presence (bottom panels) or tabsence (top panels) of orexin-A is illustrated in B.
as §3

In the case of “orexin-A: 33 amino acid hypothalamic neuropeptide, OX1R agonist, SEQ ID NO:2; peptide from GL Biochemicals”, the caspase-3 activation (parental HPAF-II cells [1]) is reported as “no activation”, the “annexin-V positive apoptotic cells” value [2] is reported as 17.8% and the “tumor volume decrease under other injection frequencies” value ([3]; 2 or 3 injections/week (data not shown)) is reported as “same results”. The “reduction of tumor volume versus daily injections” value ([3]; once or twice weekly therapy (data not shown)) was “equivalent or even more effective”, the “percentage of apoptotic cells (annexin V-PE)” value (AsPC-1 cells) was 24.3%±1.4 and the caspase-3 activation [4] was “strong caspase-3 activation”. For the same substance, the induction of apoptosis (parental HPAF-II cells [5]; 48 hr, untransfected parental HPAF-II cells) was “did not induce apoptosis” and the “annexin-V positive apoptotic cells” value (parental HPAF-II cells [5]; untransfected cells) was 2.1%±0.4.
